Where two headings read alike, the source gives them in different places. Each block holds one compound with its values, some of them ahead of it.
How the values were obtained:
[1] = cited from earlier work; for unenhanced flux: without chemical enhancers
SHBG [2] = target: T1, SHBG (Homo sapiens, UniProt P04278); details: cited from earlier work; for binding affinity for SHBG: Phillips 1990, Steroids
T1 sequence (P04278 30-402): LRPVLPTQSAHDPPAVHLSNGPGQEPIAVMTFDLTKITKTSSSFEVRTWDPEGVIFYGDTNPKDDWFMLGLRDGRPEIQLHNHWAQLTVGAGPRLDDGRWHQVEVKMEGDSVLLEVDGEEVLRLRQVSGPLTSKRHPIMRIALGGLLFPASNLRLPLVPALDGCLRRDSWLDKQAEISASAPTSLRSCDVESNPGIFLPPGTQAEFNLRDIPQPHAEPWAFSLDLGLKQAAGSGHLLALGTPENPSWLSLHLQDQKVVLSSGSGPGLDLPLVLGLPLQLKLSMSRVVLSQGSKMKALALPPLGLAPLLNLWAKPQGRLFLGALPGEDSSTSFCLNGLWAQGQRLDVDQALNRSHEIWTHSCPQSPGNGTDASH

[3] = in vivo; cited from earlier work
[4] = Second clinical trial of LNG plus EE transdermal patches (Example 2): serum/plasma LNG and EE levels; details: clinical data of LNG plus EE patches versus LNG-only patches
SHBG [5] = target: T1, SHBG; details: cited from earlier work
[6] = In vitro skin permeation of LNG from patches, Franz diffusion cells; assay type: in vitro ADME, human; details: comparison in words
Description: The objective of this study was to compare in vitro skin permeation of LNG through human cadaver skin from a patch containing both EE and LNG (Patch of column 4, Table 1) with a patch containing only LNG (patch in column 2, Table 1).
Only one (1) skin donor was used in these in vitro skin permeation experiments (split thickness dermatomed approximately at […] human cadaver skin). All in vitro skin permeation studies were conducted using the PermeGear Membrane Transport System. Each Membrane Transport System consisted of vertical, jacketed (37° C.±0.5° C.) Franz diffusion cells with magnetic stirrer, 2 chamber (donor and receiver) sets of 6 units, orifice diameter 15 mm, effective permeation surface area 1.767 cm^2. Each cell was prepared by cutting the skin samples into approximately 3 cm×3 cm squares and mounting them on the top of the receiver compartment of Franz cells. Patches to be tested were placed on the stratum corneum surface of the skin and the donor and receiver compartments of the diffusion cells were then clamped in place. The receiver compartment was then filled with approximately 12 mL of receiver medium/receptor solution (Phosphate Buffered Saline (PBS)+0.5% Oleth 20+0.008% Gentamicin, pH 7.3), tilting to make sure the receiver medium and the skin/solution interface was free of any air bubbles.
Skin flux studies were run for a period of 168 hours. […]

[7] = human, in vivo
[8] = Victor et al., J. Clin. Endocrinol. Metab. 43: 244

Compound: C#C[C@]1(O)CC[C@H]2[C@@H]3CCC4=CC(=NO)CC[C@@H]4[C@H]3CC[C@@]21CC (mixture of isomers) [17 deacetylnorgestimate]
unenhanced flux ([1]; from cited patents): 0.1 micrograms/cm^2/hr

Compound: C#C[C@]1(OC(C)=O)CC[C@H]2[C@@H]3CCC4=CC(=NO)CC[C@@H]4[C@H]3CC[C@@]21CC (mixture of isomers) [norgestimate]
binding affinity for SHBG (SHBG [2]): low binding affinity

Compound: C#CC1(O)CC[C@H]2[C@@H]3CCC4=CC(=O)CC[C@@H]4[C@H]3CC[C@@]21CC (mixture of isomers) [dl-norgestrel]
binding affinity to SHBG (SHBG [2]; [8]): higher affinity for SHBG than EE

Compound: C#C[C@]1(O)CC[C@H]2[C@@H]3CCC4=CC(=O)CC[C@@H]4[C@H]3C(=C)C[C@@]21CC [3-keto desogestrel]
binding affinity for SHBG (SHBG [2]): reasonably high affinities | binding affinity to SHBG (SHBG [2]; Pollow 1989, Contraception): high binding affinity

Compound: C[C@]12CC[C@@H]3c4ccc(O)cc4CC[C@H]3[C@@H]1CC[C@@H]2O [17-beta estradiol, 17-beta-estradiol]
oral bioavailability [3]: less than 10%

increase of LNG plasma levels by addition of EE relative to addition of an equivalent amount of LNG [4]: about ten
Compound: C#C[C@]1(O)CC[C@H]2[C@@H]3CCc4cc(O)ccc4[C@H]3CC[C@@]21C [EE, ethinyl estradiol]
oral bioavailability [3]: 95% | IC50 (SHBG [5]; Hong et al., 2015, read-out: IC50 in testosterone displacement assay): 790 nM | IC50 (SHBG [5]; according to Hong (2015), read-out: IC50 (affinity for SHBG)): 800 nM

permeation/release of LNG through human skin, LNG-only versus LNG plus EE patches [6]: not affected by the presence of EE | mean serum concentration of LNG, value extrapolated from the data collected [7]: 1420 picograms per milliliter
Compound: C#C[C@]1(O)CC[C@H]2[C@@H]3CCC4=CC(=O)CC[C@@H]4[C@H]3CC[C@@]21CC [LNG, levonorgestrel]

Compound: CC(=O)O[C@]1(C(C)=O)CC[C@H]2[C@@H]3C=C(C)C4=CC(=O)CC[C@]4(C)[C@H]3CC[C@@]21C [Megestrol acetate]
binding affinity to SHBG (SHBG [2]; [8]): do not have high binding affinity

Compound: C#C[C@]1(OC(C)=O)CC[C@H]2[C@@H]3CCC4=CC(=O)CC[C@@H]4[C@H]3CC[C@@]21C [Norethindrone Acetate]
flux ([1]; U.S. Pat. No. 5,474,783, enhancement not stated): 0.05 micrograms/cm^2/hr

Compound: CC(=O)O[C@]1(C(C)=O)CC[C@H]2[C@@H]3C=C(Cl)C4=CC(=O)[C@@H]5C[C@@H]5[C@]4(C)[C@H]3CC[C@@]21C [cyproterone acetate]
binding affinity to SHBG (SHBG [2]; Pollow 1989, Contraception): lesser binding affinity

Compound: C#C[C@]1(O)CC[C@H]2[C@@H]3CCC4=CC(=O)CC[C@@H]4[C@H]3CC[C@@]21CC [d-norgestrel]
binding affinity to SHBG (SHBG [2]; [8]): higher affinity for SHBG than EE

Compound: C#C[C@]1(O)CC[C@H]2[C@@H]3CCC4=CCCC[C@@H]4[C@H]3C(=C)C[C@@]21CC [desogestrel]
binding affinity to SHBG (SHBG [2]; Pollow 1989, Contraception): lesser binding affinity | binding affinity to SHBG (SHBG [2]; Schoultz 1989): lesser binding affinity

Compound: C#C[C@]1(O)C=C[C@H]2[C@@H]3CCC4=CC(=O)CC[C@@H]4[C@H]3CC[C@@]21CC [gestodene]
binding affinity for SHBG (SHBG [2]): reasonably high affinities | binding affinity to SHBG (SHBG [2]; Pollow 1989, Contraception): high binding affinity

Compound: C#C[C@]1(O)CC[C@H]2[C@@H]3CCC4=CCCC[C@@H]4[C@H]3CC[C@@]21C [lynestrenol]
binding affinity to SHBG (SHBG [2]; [8]): higher affinity for SHBG than EE

Compound: CC(=O)O[C@]1(C(C)=O)CC[C@H]2[C@@H]3C[C@H](C)C4=CC(=O)CC[C@]4(C)[C@H]3CC[C@@]21C [medroxyprogesterone acetate]
binding affinity to SHBG (SHBG [2]; Pollow 1989, Contraception): lesser binding affinity | binding affinity to SHBG (SHBG [2]; Schoultz 1989): lesser binding affinity

Compound: C=C1C[C@H]2[C@@H]3CCC4=CC(=O)CC[C@@H]4[C@H]3CC[C@]2(C)[C@@]1(OC(C)=O)C(C)=O [nesterone]
enhanced flux ([1]; with chemical enhancers, from cited patents): 0.01 micrograms/cm^2/hr | unenhanced flux ([1]; from cited patents): 0.005 micrograms/cm^2/hr

Compound: C#C[C@]1(OC(C)=O)CC[C@H]2[C@@H]3CCC4=CC(=O)CC[C@@H]4[C@H]3CC[C@@]21C [norethisterone acetate]
unenhanced flux ([1]; from cited patents): 0.05 micrograms/cm^2/hr

Compound: C#C[C@]1(O)CC[C@H]2[C@@H]3CCC4=CC(=O)CC[C@@H]4[C@H]3CC[C@@]21C [norethisterone]
binding affinity to SHBG (SHBG [2]; Schoultz 1989): high binding affinity | binding affinity to SHBG (SHBG [2]; [8]): higher affinity for SHBG than EE

Compound: C#C[C@]1(O)CC[C@H]2[C@@H]3CCC4=C(CCC(=O)C4)[C@H]3CC[C@@]21C [norethynodrel]
binding affinity to SHBG (SHBG [2]; [8]): higher affinity for SHBG than EE

Compound: CC(=O)[C@H]1CC[C@H]2[C@@H]3CCC4=CC(=O)CC[C@]4(C)[C@H]3CC[C@]12C [progesterone]
binding affinity to SHBG (SHBG [2]; Pollow 1989, Contraception): lesser binding affinity | unenhanced flux ([1]; from cited patents): 0.14 micrograms/cm^2/hr

Compound: medroxyprogesterone
binding affinity to SHBG (SHBG [2]; [8]): do not have high binding affinity
